Results published in US12296009B2, “Immunogenic composition for the treatment of cancer” (APGEN THERAPUETICS AB, priority 2017, dated 2025).

Legend:
[1] = tested on: HLA class I; test: HLA class I expression on tumor cells by flow cytometry; assay type: cell-based, human; settings: for HLA class I induction by IFNγ in combination with BETi: increasing BETi concentrations with a standard concentration of IFNγ (FIG. 5)
Method: (§1) Flow cytometry was done after staining with the following antibodies: anti-human HLA-ABC APC-Cy7 (clone W6/32; Biolegend, San Diego, CA, USA), CD274 BV786 (clone MIH1; BD Biosciences, Franklin lakes, NJ, USA). All data were acquired on a Novocyte 2000 [?] flow cytometer (Acea Biosciences, San Diego, CA, USA) were analyzed using FlowJo software version 10 (Treestar).
(§2) We show herein that treating patient-derived early-passage melanoma cell lines with JQ1 enhances recognition by autologous TIL. […] Along with this, PD-L1 and HLA class I expression were assessed by flow cytometry in pretreated tumor cells to find out whether functional observations in the tumor-TIL co-cultures would be associated with changes in PD-L1 expression or HLA class I expression, both markers being key determinants of T-cell activation upon target cell recognition.

[2] = tested on: ANRU tumor cells; test: Co-culture of pretreated ANRU tumor cells with autologous TIL, IFNγ ELISA on supernatant; assay type: cell-based, human; settings: for Time kinetics of sensitization for recognition by TIL: ANRU pretreated 12, 24, 48 and 72 hours; for Time kinetics of sensitization for recognition by TIL / T-cell recognition by autologous TIL (IFNγ production in co-culture): 24 hours co-culture
Method: Tumor cells were also co-cultured with unsorted TIL, and TIL without specificity for the aforementioned tumor antigens (designated ‘neg’).
(§3) Cells were subsequently trypsinized, washed and co-cultured for 24 hours with autologous tumor-infiltrating lymphocytes (TIL). Co-culture supernatants were assessed by ELISA for IFNγ levels, as a measure for tumor recognition by the TIL.
(§4) The early-passage melanoma cell lines ANRU, ROAL and KADA were established from patients at the oncology clinic at Karolinska University Hospital (ethical permit: #2011/143-32/1) based on a published protocol.21 Mycoplasma-free (MycoAlert kit) cell lines were in their 15th to 45th passage when used in this study.
(§5) Culture and expansion of tumor-infiltrating lymphocytes was done as published before.^4 A piece of the tumor (approximately 0.5 cm3) was minced into 1 mm3 pieces. Each piece was placed in one well of a 24-well plate containing 1 mL/well CellGro medium supplemented with 2% autologous plasma (generated by centrifugation and heat-inactivation of plasma collected on the day of surgery) and 6,000 IU/mL IL-2 (Proleukin, Novartis, Basel, Switzerland). On day 1 of culture, half of the medium volume in each well was replaced with fresh medium supplemented with plasma and IL-2. After 3-4 days of culture, lymphocytes could usually be seen emerging from the tumor piece. Cultures were monitored regularly and split before reaching confluence. After approximately 2 weeks, expanding wells were pooled and counted. To generate large T cell numbers, TIL were cultured for approximately 14 days in presence of autologous, irradiated feeders (40 Gy, TIL:feeder ratio 1:50-1:80) with 300 IU/mL IL-2 and 30 ng/mL anti-CD3 antibody (OKT3, Cilag, Zug, Switzerland). Cells were split or medium exchanged as necessary. Cultures were initiated in standing T75 flasks, but transferred to VueLife cell culture bags 1 week before harvest. At the end of culture, cells were harvested, pooled, characterized, counted and frozen.
as §2
To test this, we co-cultured ANRU tumor cells for 24 hours with autologous TIL in the presence and absence of a PD-L1 blocking antibody. Suitable PD-L1 blocking antibodies are commercially available, and include anti-human CD274 (B7-H1, PD-L1) Antibody (clone 29E.2A3; Cat No. 329709; Biolegend), anti-human CD274 (B7-H1, PD-L1) Antibody (clone MIH3; Cat No. 374502; Biolegend), Anti-PD-L1 (CD274) Neutralizing Antibody (Cat No. 71213; BPS Bioscience), PD-L1/B7-H1/CD274 Blocking Antibody (clone R639; Cat No. 10084-R639; Sino Biological) and Human PD-L1/B7-H1 Antibody (Cat No. AF156; R and D Systems). Tumors cell were pretreated for 12, 24, 48 and 72 hours, to check for any PD-L1 induction or suppression over time by flow cytometry, and to define the time kinetics of JQ1-induced sensitization of tumors for recognition by TIL in a co-culture. We reasoned that recognition by autologous TIL should not be affected by PD-L1 blockade at any time point if ANRU tumor cells would be PD-L1 negative under all conditions.
Herein, we addressed the question whether enhanced tumor recognition by autologous TIL after JQ1 treatment is directed at tumor-associated antigens or tumor-specific mutant antigens. Therefore we co-cultured ANRU cells with TIL sorted for their specifity towards either the tumor-associated antigen MART-1, or two different tumor-specific mutant antigens, designated ETV6.9 and NUP210.

[3] = tested on: ROAL tumor cells; test: Co-culture of pretreated ROAL tumor cells with autologous TIL, IFNγ ELISA on supernatant; assay type: cell-based, human
Method: as §3, §4
as §5, with “To generate large T cell numbers, TIL were cultured for approximately 14 days in presence of autologous, irradiated feeders (40 Gy, TIL:feeder ratio 1:50-1:80) with 300 IU/mL IL-2 and 30 ng/mL anti-CD3 antibody (OKT3, Cilag, Zug, Switzerland). Cells were split or medium exchanged as necessary. Cultures were initiated in standing T75 flasks, but transferred to VueLife cell culture bags 1 week before harvest.” left out
as §2

[4] = tested on: KADA tumor cells; test: Co-culture of pretreated KADA tumor cells with autologous TIL, IFNγ ELISA on supernatant; assay type: cell-based, human
Method: as §3, §4
as §5, with “To generate large T cell numbers, TIL were cultured for approximately 14 days in presence of autologous, irradiated feeders (40 Gy, TIL:feeder ratio 1:50-1:80) with 300 IU/mL IL-2 and 30 ng/mL anti-CD3 antibody (OKT3, Cilag, Zug, Switzerland). Cells were split or medium exchanged as necessary. Cultures were initiated in standing T75 flasks, but transferred to VueLife cell culture bags 1 week before harvest.” left out
as §2

[5] = tested on: A375 tumor cells; test: Co-culture of pretreated A375 tumor cells with allogeneic T cells, IFNγ ELISA on supernatant; assay type: cell-based, human; settings: A375, 72 hours JQ1 alone or in combination with IFNγ, 24 hours co-culture with allogeneic T cells
[6] = tested on: PD-L1; test: PD-L1 expression on tumor cells by flow cytometry; assay type: cell-based, human; settings: 72 hours JQ1 and/or IFNγ
Method: as §1, §2

[7] = tested on: HLA class II; test: HLA class II expression on tumor cells by flow cytometry; assay type: cell-based, human
[8] = tested on: IDO; test: IDO expression in tumor cells by flow cytometry; assay type: cell-based, human; settings: early-passage melanoma cell lines, 72 hours JQ1 and/or IFNγ (FIG. 6)
[9] = tested on: CD73; test: CD73 expression on tumor cell lines by flow cytometry; assay type: cell-based; settings: commercially available human tumor cell lines of various origins, 72 hours JQ1 and/or IFNγ (FIG. 7)
[10] = tested on: antigen-presentation machinery (APM); test: mRNA expression of antigen-presentation machinery components by qPCR; assay type: cell-based, human
Method: (§6) This was most apparent for HLA class I heavy chain, and overall was most clearly seen in A375 cells.
Moreover, the presence of a HLA class I blocking antibody always fully abrogated T-cell recognition in co-cultures with pretreated tumors. […] Therefore, we studied mRNA and protein expression of well-known components of the antigen-presentation machinery (APM) after pretreatment with JQ1 alone and/or IFNγ.
(§7) To study the time kinetics of these effects, the ANRU cell line was treated in the same way for 12, 24, 48 and 72 hours. […] This was most apparent for HLA class I heavy chain, and overall was most clearly seen in A375 cells.

[11] = tested on: antigen-presentation machinery (APM); test: Western blot of antigen-presentation machinery components; assay type: cell-based, human; settings: ANRU, ROAL, KADA and A375 cells, 72 hours JQ1 and/or IFNγ; most clearly in A375
Method: as §6, §7

[12] = tested on: STAT1; test: STAT1 mRNA expression by RT-qPCR; assay type: cell-based, human; settings: ANRU, ROAL and A375 cells, JQ1 with IFNγ
From the text: (§8) (B) mRNA expression levels, measured by RT-qPCR, in ANRU, ROAL and A375 cells of STAT1 and JAK1, two proteins crucially involved in signaling downstream of IFNγ ligation to its cognate receptor.

[13] = tested on: JAK1; test: JAK1 mRNA expression by RT-qPCR; assay type: cell-based, human; settings: ANRU, ROAL and A375 cells, JQ1 by itself and in combination
From the text: as §8

[14] = tested on: MYC; test: MYC expression by western blot; assay type: cell-based; settings: 72 hours JQ1 alone or in combination with IFNγ
[15] = ANRU, 72 hours pretreatment with the substance alone
[16] = pretreatment with the substance alone
[17] = ANRU, 72 hours, IFNγ in the presence of JQ1

Compound: COc1cc2c(cc1-c1c(C)noc1C)ncc1[nH]c(=O)n([C@H](C)c3ccccn3)c12 [I-BET151]
- HLA class I induction by IFNγ in combination with BETi ([1]; A375, 72 hours): clearly increased
- HLA class I induction by IFNγ in combination with BETi ([1]; ROAL, 72 hours): clearly increased

Compound: IFNγ: Interferon gamma (IFNγ), a known physiological cue for sensitization of target cells for T-cell recognition
- Time kinetics of sensitization for recognition by TIL [2]: did not lead to an improvement of tumor recognition
- T-cell recognition by autologous TIL (IFNγ production in co-culture) [2, 15]: did not lead to any increases in T-cell recognition
- Recognition by autologous TIL (IFNγ production in co-culture) [3, 16]: did not sensitize the cells
- Recognition by autologous TIL (IFNγ production in co-culture) [4, 16]: strongly sensitized

Compound: CCNC(=O)C[C@@H]1N=C(c2ccc(Cl)cc2)c2cc(OC)ccc2-n2c(C)nnc21 [I-BET762]
- HLA class I induction by IFNγ in combination with BETi ([1]; A375, 72 hours): clearly increased
- HLA class I induction by IFNγ in combination with BETi ([1]; ROAL, 72 hours): clearly increased

Compound: Cc1sc2c(c1C)C(c1ccc(Cl)cc1)=N[C@@H](CC(=O)OC(C)(C)C)c1nnc(C)n1-2 [JQ1]
- Effect of PD-L1 blocking antibody on recognition of pretreated tumor cells by TIL ([2]; ANRU pretreated 12, 24, 48 and 72 hours with JQ1 and/or IFNγ, 24 hours co-culture with or without PD-L1 blocking antibody): no effect of PD-L1 blockade was seen
- Time kinetics of sensitization for recognition by TIL [2]: most prominent after pretreatment with JQ1 alone for 72 hours
- Recognition by TIL sorted for MART-1, ETV6.9 and NUP210 specificity (IFNγ in co-culture supernatant) ([2]; ANRU, 0.4 μM JQ1 for 72 hours): improved recognition by all three TIL populations
- T-cell recognition by autologous TIL (IFNγ production in co-culture) ([2]; ANRU, 72 hours pretreatment with JQ1 in combination with IFNγ): did not lead to any increases in T-cell recognition
- T-cell recognition by autologous TIL (IFNγ production in co-culture) [2, 15]: dose-dependent increase in T-cell recognition
- Recognition by autologous TIL (IFNγ production in co-culture) ([3]; pretreatment with combination of JQ1 and IFNγ): significantly better and synergistically recognize
- Recognition by autologous TIL (IFNγ production in co-culture) [3, 16]: did not sensitize
- Recognition by autologous TIL (IFNγ production in co-culture) ([4]; pretreatment with combination of IFNγ and JQ1, versus IFNγ): led to a reduction in tumor cell recognition
- Recognition by autologous TIL (IFNγ production in co-culture) [4, 16]: did not sensitize
- T-cell recognition (IFNγ levels in co-culture supernatants) compared to DMSO-treated tumor cells [5]: strongly and significantly enhanced
- PD-L1 expression ([6]; ANRU): wholly absent under all conditions
- Constitutive and IFNγ-induced PD-L1 expression ([6]; KADA): strongly suppressed
- PD-L1 expression ([6]; ROAL): marginal if not absent under all conditions
- HLA class I induction by IFNγ ([1]; A375, 72 hours, IFNγ in the presence of JQ1 (FIG. 1)): enhances HLA class I induction by IFNγ
- HLA class I induction by IFNγ in combination with BETi ([1]; A375, 72 hours): clear dose-dependent enhancement of HLA class I induction by IFNγ
- HLA class I induction by IFNγ ([1]; A549 (lung carcinoma), 72 hours JQ1 and/or IFNγ): enhances HLA class I induction by IFNγ
- HLA class I induction by IFNγ [1, 17]: consistent enhancement of HLA class I induction by IFNγ
- HLA class I induction by IFNγ ([1]; HCT116 (colon carcinoma), 72 hours JQ1 and/or IFNγ): enhances HLA class I induction by IFNγ
- HLA class I induction by IFNγ ([1]; HeLa (cervical carcinoma), 72 hours JQ1 and/or IFNγ): enhances HLA class I induction by IFNγ
- HLA class I induction by IFNγ ([1]; KADA, 72 hours, IFNγ in the presence of JQ1): reduced HLA class I induction by IFNγ
- HLA class I induction by IFNγ ([1]; ROAL, 72 hours, IFNγ in the presence of JQ1): significantly more strongly induced by IFNγ
- HLA class I induction by IFNγ in combination with BETi ([1]; ROAL, 72 hours): clear dose-dependent enhancement of HLA class I induction by IFNγ
- HLA class II upregulation by IFNγ [7, 17]: upregulation of HLA class II was actually suppressed
- Constitutive and IFNγ-induced HLA class II expression ([7]; early-passage melanoma cell lines, 72 hours JQ1 and/or IFNγ (FIG. 6)): clearly suppressed
- IFNγ-induced IDO expression [8]: suppresses IFNγ-induced IDO expression
- CD73 induction by IFNγ [9]: suppresses CD73 induction by IFNγ
- mRNA induction of APM components by IFNγ, time kinetics ([10]; ANRU, 12, 24, 48 and 72 hours, 0.4 μM JQ1 and/or 25 ng/ml IFNγ): potentiated the induction of APM components by IFNγ at all time points
- mRNA induction of APM components by IFNγ ([10]; ANRU, ROAL, KADA and A375 cells, 72 hours JQ1 and/or IFNγ, most pronounced for HLA class I, B2M, TAP1 and TAP2): potentiated their induction by IFNγ
- Protein level induction of APM components by IFNγ (TAP1, TAP2, Tapasin, HLA class I heavy chain, LMP2, LMP10) [11]: Enhanced induction of APM components by IFNγ
- STAT1 mRNA induction by IFNγ [12]: strongly enhances induction of STAT1 by IFNγ
- JAK1 mRNA expression [13]: consistently increases JAK1 expression
- MYC expression [14]: downregulated
